From patent US11066406B2, “Small molecule inhibitors of the JAK family of kinases” (Janssen Pharmaceutica NV, priority 2018, dated 2021)

Assays:
[1] = Physical stability of solid forms (accelerated aging conditions / ambient); assay type: physicochemical; conditions: 2 days at 40° C./70% RH, HT-XRPD
Description: Long term slurry experiments were performed by suspending compound embodiment 1s in twenty neat solvents and stirring at room temperature for two weeks and at 50° C. for one week. Upon completion of the equilibration time, the residual solids were separated from the mother liquors. The solids were dried under ambient conditions and dried under vacuum (5 mBar) before being analyzed by HT-XRPD. Subsequently, the solids were exposed to accelerated aging conditions (40° C./70% relative humidity) for two days and again analyzed by HT-XRPD.
The mother liquors of the solvent equilibration experiments performed at 50° C. were filtered at 50° C. to remove any particulate matter. The suspensions at 50° C. were filtered using 0.2 μm PTFE filters, and the solutions were placed at 5° C. and aged for 72 hours. When solids had precipitated during aging these solids were separated from the liquid, dried under ambient conditions and under vacuum, and analyzed by HT-XRPD. The remaining mother liquors were allowed to slowly evaporate and the remaining solids were analyzed by HT-XRPD. The samples in which no precipitation occurred were placed under vacuum and the dried solids were analyzed by HT-XRPD. All the solids were then exposed to AAC (2 days at 40° C./70% RH) and re-analyzed by HT-XRPD.
The cooling/evaporative crystallization experiments at μL scale were performed in a 96-well plate, using 12 neat solvents and 12 solvent mixtures and applying four temperature profiles. In each well approximately 4 mg of embodiment 1s was solid dosed. Subsequently, the crystallization solvents (80 μL) and solvent mixtures were added to reach a concentration of 50 mg/mL, and the plate, with each well individually sealed, to subsequently undergo one of the four temperature profiles. Upon completion of the temperature profile the solvents were allowed to evaporate at low ambient pressure (24 hours) and the remaining solids were analyzed by HT-XRPD before and after exposure to AAC for 2 days (40° C./70% RH).
The cooling crystallization experiments with hot filtration were performed from supersaturated solutions of compound Ex. 1 prepared at 50° C. in different solvent mixtures. The hot filtrated solutions underwent a 48-hour cooling profile. The vials in which solids had precipitated after the temperature profile were centrifuged and the solids were separated from the liquid and analyzed by HT-XRPD (after drying under vacuum). If no solids had precipitated the solutions were evaporated under vacuum and the solids analyzed by HT-XRPD. All the solids were exposed to AAC (2 days at 40° C./70% RH) and re-analyzed by HT-XRPD. […] In three experiments, an amorphous residue was recovered which after AAC crystallized to a mixture of members of embodiment 1 (1s or 1a) and 3 (3e) or became deliquescent. […]

[2] = Hygroscopicity (GVS) and static storage of embodiment 11; assay type: physicochemical
Description: In a hygroscopicity study of embodiment 11, it was found it to be only slightly hygroscopic, with a mass change of 0.66% between 0-90% RH in the GVS analysis as shown in FIG. 18. […] Variable temperature (VT)-XRPD was performed in order to assess the stability of embodiment 11 upon heating. […] The diffractograms of embodiment 11 before and after the VT-XRPD experiment, along with the diffractogram for embodiment 6 are shown in FIG. 24. Embodiment 11 was also subjected to static storage analysis at 40° C./75% RH for up to 48 days. The samples were analyzed by XRPD and Karl Fisher (KF) after 2 days, 5 days and 48 days.

| Compound | physical stability after accelerated aging conditions (AAC) [1] | physical stability by XRPD on static storage ([2]; 40° C./75% RH for up to 48 days) | mass change in GVS analysis ([2]; between 0-90% RH) [%] | total water uptake (Karl Fisher) ([2]; static storage 40° C./75% RH, after 48 days) [%] |
| --- | --- | --- | --- | --- |
| CC(C)(O)CNC(=O)Cc1nc2cnc3[nH]ccc3c2n1[C@H]1CC[C@H](CC#N)CC1 [embodiment 7, 2-(1-((1r,4r)-4-(Cyanomethyl)cyclohexyl)-1,6-dihydroimidazo[4,5-d]pyrrolo[2,3-b]pyridin-2-yl)-N-(2-hydroxy-2-methylpropyl)acetamide] | physically stable |  |  |  |
| CC(C)(O)CNC(=O)Cc1nc2cnc3[nH]ccc3c2n1[C@H]1CC[C@H](CC#N)CC1 [embodiment 5, 2-(1-((1r,4r)-4-(Cyanomethyl)cyclohexyl)-1,6-dihydroimidazo[4,5-d]pyrrolo[2,3-b]pyridin-2-yl)-N-(2-hydroxy-2-methylpropyl)acetamide] | physically unstable |  |  |  |
| CC(C)(O)CNC(=O)Cc1nc2cnc3[nH]ccc3c2n1[C@H]1CC[C@H](CC#N)CC1 [embodiment 11, 2-(1-((1r,4r)-4-(Cyanomethyl)cyclohexyl)-1,6-dihydroimidazo[4,5-d]pyrrolo[2,3-b]pyridin-2-yl)-N-(2-hydroxy-2-methylpropyl)acetamide] |  | remained unchanged | 0.66 | 1.2 |
| CC(C)(O)CNC(=O)Cc1nc2cnc3[nH]ccc3c2n1[C@H]1CC[C@H](CC#N)CC1 [embodiment 6, 2-(1-((1r,4r)-4-(Cyanomethyl)cyclohexyl)-1,6-dihydroimidazo[4,5-d]pyrrolo[2,3-b]pyridin-2-yl)-N-(2-hydroxy-2-methylpropyl)acetamide] | stable solid form |  |  |  |
| CC(C)(O)CNC(=O)Cc1nc2cnc3[nH]ccc3c2n1[C@H]1CC[C@H](CC#N)CC1 [embodiment 2, 2-(1-((1r,4r)-4-(Cyanomethyl)cyclohexyl)-1,6-dihydroimidazo[4,5-d]pyrrolo[2,3-b]pyridin-2-yl)-N-(2-hydroxy-2-methylpropyl)acetamide] | converted to embodiment 3e |  |  |  |
